Assay results as given in patent publication US10456339B2, “Organic hydroperoxide reduction in perfumery raw materials” (FIRMENICH SA, priority 2017, dated 2019).
“And” between values parts separate entries of the source, which are not always exact repeats. Identical values can stand only once. Like-named read-outs stand apart in the source and are kept apart here.

Tests used:
[1] = Reduction of POV in sunflower oil using 2-oxovaleric acid; details: 250 μL in 25 mL sunflower oil
Description: 25 mL of sunflower oil (from an off-the-shelf, opened 1 quart container with approximately 25% atmospheric headspace; storage time unknown) was placed in a 30 mL vial at room temperature. 250 μL of 2-oxovaleric acid was added. The vial was shaken and allowed to stand at ambient temperature in laboratory lighting on the benchtop. No further treatment was done prior to the POV testing.
POV measurements were made on the sunflower oil before and after the 2-oxovaleric acid treatment. The untreated oil was also re-measured periodically for comparison, since opening of the bottle replenishes atmospheric headspace and can cause the POV of the bottle contents to rise. The % reduction was always calculated versus the most recent POV value on the untreated oil, and if multiple measurements were made, an averaged value (shown in parentheses) was used for the calculation.

[2] = POV of model perfume treated with AKG DiDeanol salt; details: 1.0% w/v
Description: (§1) A model perfume was made using 90/10 v/v ethanol/water as a solvent, and a mixture of orange, grapefruit, and bergamot oils as the perfume oil. The mixed citrus oil was loaded into the solvent at approximately 19.4% v/v (6 mL oil into 25 mL solvent). Approximately 200 mg (1.0% w/v) of the AKG DiDeanol salt was dissolved in 20 mL of the mixed citrus perfume, and POV measurements were taken as a function of time after the addition. An untreated perfume sample was handled similarly to the treated perfume and also tested, because the POV can rise rapidly with handling of the sample (opening the bottle, agitation, etc.).

[3] = POV of spiked consumer product: Skin Cream; details: 1% (w/w); for POV of treated Skin Cream: spiked with oxidized limonene
Description: This Example reports the treatment of exemplary consumer product formulations. […] All of the samples had not been fragranced, so the POV was be associated with autooxidized base components. The five consumer product formulations were spiked with an extremely oxidized limonene that was produced in a photoreactor as a source of mixed limonene hydroperoxide isomers (the POV was 1434 mmol/L).
Sample Preparation: 40 mL (Sample #3) or 40 g (Samples #1, 2, 4 & 5) were each spiked with 0.4 mL of oxidized limonene and mixed until homogeneous. Half of each spiked consumer product sample was transferred to a second container, and treated as described in the table below with 0.5-1% (w/w) of a 2-oxocarboxylic acid ammonium salt, then mixed to homogeneity. […]

[4] = POV of mixed citrus oil treated with AKG-DiMeC12A salt; details: 1.0% w/v, within 72 hours (3 days) after addition
Text: In addition to the treatment done in a model perfume as described above, a similar experiment was done in mixed citrus oil. A sample of mixed citrus oil was made by combining lime, orange, grapefruit, lemon, mandarin, tangerine, and bergamot oils, so that a variety of terpene hydroperoxides would be present in the treated mixture being tested. […] An untreated mixed citrus oil sample was handled similarly to the treated oil and also tested, because the POV can rise rapidly with handling of the sample (opening the bottle, agitation, etc.).

[5] = Reduction of POV in sunflower oil using AKG-DiMeC12A; details: for POV of treated oil: 0.3062 g in 15 mL sunflower oil
Description: (§3) The mixture was allowed to stand on the benchtop in ambient laboratory light at room temperature, and POV measurements were taken periodically.

[6] = Surface tension of aqueous solution, pendant drop method; type: physicochemical; details: 0.14 weight % solution in water; pure water 71.57 mN/m
Description: The measurement was made on a Kruss DSA100S Tensiometer by the pendant drop method. […] This concentration was chosen so the results could be compared to the literature value for known surfactant sodium dodecyl sulfate (SDS) at 5 mM, which is approximately 0.15 weight %.

[7] = Reduction of POV in model perfume using AKG-HEI; details: 1.0% w/v; 7 days after addition
Description: (§2) The mixed citrus oil was loaded into the solvent at approximately 16.7% v/v (40 mL oil into 200 mL solvent, 240 mL total perfume). Approximately 150 mg (1.0% w/v) of the AKG-HEI salt was dissolved in 15 mL of the mixed citrus perfume, and POV measurements were taken as a function of time after the addition. An untreated perfume sample was handled similarly to the treated perfume and also tested, because the POV can rise rapidly with handling of the sample (opening the bottle, agitation, etc.).

[8] = POV of model perfume treated with AKG-mono(DiMeC12A); details: 1.0% w/v; within 26 hours after the addition
Description: as §1, with “AKG-monoMeC12A” for “AKG DiDeanol”

[9] = Reduction of POV in sunflower oil using DiMeC10A-PhPA; details: for POV of treated oil: 0.3032 g in 15 mL sunflower oil
Description: as §3

[10] = Reduction of POV in model perfume using PhPA-DiMeC10A; details: […] w/v; 7 days after addition
Description: as §2, with “164” for “150”, “(1.1%” for “(1.0%”, “PhPA-DiMeC10A” for “AKG-HEI”

[11] = 0.3358 g in 15 mL sunflower oil; 23 days; indistinguishable from BLANK
[12] = Reduction of POV in model perfume using oxaloacetic acid; details: 0.83% w/v; 24 hours after treatment
[13] = Reduction of POV in limonene using phenylglyoxylic acid; details: 200 mg in 20 mL, room temperature
Description: 20 mL of autoxidized limonene was placed in a 30 mL glass vial at room temperature, along with a stir bar and an argon gas blanket. 200 mg of phenylglyoxylic acid was added, which dissolved. The vial was shaken once and allowed to stand, while being monitored for POV value as a function of time.

[14] = Reduction of POV in citrus oil using pyruvic acid
Description: 50 mL of mixed citrus oils (orange, lemon, lime, mandarin, bergamot, and tangerine) were placed in a 100 round bottom flask at room temperature, along with a stir bar and an argon gas blanket.
A 4:1 v/v isopropanol/pyruvic acid solution was made. 20 mL of this pyruvic acid solution was dripped into the stirred citrus oils at a rate of 0.25 mL/minute via the use of a syringe pump.
When the addition was complete, 10 mL of water and 100 mg of anhydrous sodium carbonate was added to the flask, and the stirring was maintained. When the visible evolution of CO2 had stopped (about 2-4 minutes), the aqueous layer was removed with a pipette and discarded. POV measurements were made on the mixed citrus oil before and after the pyruvic acid treatment.

[15] = Reduction of POV in mixed citrus oil using α-oxo-2-furanacetic acid; details: for Treated POV: 400 mg in 20 mL mixed citrus oil; for POV reduction: vs untreated oil at same time
Description: 20 mL of mixed citrus oil was placed in a 30 mL glass vial at room temperature, along with a stir bar and an argon gas blanket. 400 mg of α-oxo-2-furanacetic acid was added. The vial was shaken once and allowed to stand, while being monitored for POV value as a function of time. […] In this way, the undissolved solid acts as a sink to maintain a steady, low concentration of α-oxo-2-furanacetic acid dissolved in the mixed citrus oil.
In this case, because the time between measurements was relatively long (days instead of minutes), there is the possibility that the untreated mixed citrus oil will oxidize further during the course of the experiment. Therefore, the POV of the treated oil was still compared with the POV of the untreated oil, but the measurement of the untreated oil was re-determined at each time point (rather than just a single, initial value being used).

[16] = Reduction of POV in model perfume using α-ketoglutaric acid; details: 1.2% w/v; 24 hours after treatment

## CCCC(=O)C(=O)O [2-oxovaleric acid]
[1]; 23 hours
  POV, single measurements: 4.95 mmol/L and 4.67 mmol/L
[1]; 46 hours
  POV, single measurements: 5.34 mmol/L and 5.10 mmol/L
[1]; 15 days
  POV, single measurements: 2.27 mmol/L and 2.05 mmol/L and 1.99 mmol/L

## CN(C)CCO.CN(C)CCO.O=C(O)CCC(=O)C(=O)O [AKG DiDeanol]
[2]; 60 min
  POV Treated Perfume: 5.95 mmol/L
[2]; 75 min
  POV Treated Perfume: 5.66 mmol/L
[2]; 115 min
  POV Treated Perfume: 4.96 mmol/L
[2]; 195 min
  POV Treated Perfume: 3.20 mmol/L
[2]; 210 min
  POV Treated Perfume: 3.08 mmol/L
[2]; 300 min (5 hours)
  POV Treated Perfume: 2.31 mmol/L
[2]; 370 min
  POV Treated Perfume: 1.73 mmol/L
[2]; 380 min
  POV Treated Perfume: 1.72 mmol/L
[2]; […] (24 hours), indistinguishable from blank
  POV Treated Perfume: 0.0 indistinguishable from mmol/L

## CCCCCCCCCCCCN(C)C.CCCCCCCCCCCCN(C)C.O=C(O)CCC(=O)C(=O)O [AKG-DiMeC12A]
[3]; 140 minutes
  % Reduction in POV: 56.7%
  POV of treated Skin Cream: 6.06 mmol/L
[3]; 300 minutes (5 h)
  % Reduction in POV: 68.4%
  POV of treated Skin Cream: 4.5 mmol/L
[3]; 26 hrs
  % Reduction in POV: 84.6%
  POV of treated Skin Cream: 2.08 mmol/L
[3]; 4 days
  % Reduction in POV: 90.9%
  POV of treated Skin Cream: 1.16 mmol/L
[3]; 8 days
  % Reduction in POV: 93.0%
  POV of treated Skin Cream: 0.82 mmol/L
[3]; 15 days
  % Reduction in POV: 100.0%
  POV of treated Skin Cream: 0 mmol/L
[4]
  reduction in the POV: 89.0%
[5]; 50 minutes
  POV of treated oil: 15.36 mmol/L
  % Reduction in POV: 7.2%
[5]; 1320 mins (22 hrs)
  POV of treated oil: 12.68 mmol/L
  % Reduction in POV: 23.5%
[5]; 23 days
  POV of treated oil: 3.05 mmol/L
  % Reduction in POV: 83.6%
[6]
  surface tension: 32.08 mN/m

## O=C(O)CCC(=O)C(=O)O.O=C1NCCN1CCO.O=C1NCCN1CCO [AKG-HEI]
[7]
  reduction in POV relative to untreated material: 92.1%

## CCCCCCCCCCCCN(C)C.O=C(O)CCC(=O)C(=O)O [AKG-mono(DiMeC12A)]
[6]
  surface tension: 32.93 mN/m
[8]
  reduction in the POV: total and complete reduction

## CCCCCCCCCCN(C)C.O=C(O)C(=O)Cc1ccccc1 [DiMeC10A-PhPA]
[9]; 0.3032 g in 15 mL
  solubility in sunflower oil: majority of the salt dissolved, but some undissolved solid remained
[9]; 55 minutes
  POV of treated oil: 3.78 mmol/L
  % Reduction in POV: 77.2%
[9]; 140 minutes, indistinguishable from BLANK
  POV of treated oil: 0.00 mmol/L
[9]; 1320 mins (22 hrs), indistinguishable from BLANK
  POV of treated oil: 0.00 mmol/L
[9]; 23 days, indistinguishable from BLANK
  POV of treated oil: 0.00 mmol/L
[9]; 140 minutes
  % Reduction in POV: 100%
[9]; 1320 mins (22 hrs)
  % Reduction in POV: 100%
[9]; 23 days
  % Reduction in POV: 100%
[10]
  reduction in POV relative to untreated material: 87.2%

## CCCCCCCCCCN(C)C.O=C(O)C(=O)c1ccco1 [FAA-DiMeC10A]
[11]
  POV of treated oil: 0.00 mmol/L

## O=C(O)CC(=O)C(=O)O [oxaloacetic acid]
[12]
  reduction in the POV of the formulated perfume: complete reduction

## O=C(O)C(=O)c1ccccc1 [phenylglyoxylic acid]
[13]
  solubility in autoxidized limonene: dissolved

## CC(=O)C(=O)O [pyruvic acid]
[14]; 50 mL mixed citrus oils, 20 mL 4:1 v/v isopropanol/pyruvic acid at 0.25 mL/minute, POV before treatment 27.261 mEq/L
  POV after treatment: 4.786 mEq./L
[14]; after vs before pyruvic acid treatment
  reduction in POV: ~82%

## O=C(O)C(=O)c1ccco1 [α-Oxo-2-furanacetic acid, α-oxo-2-furanacetic acid]
[15]; 400 mg in 20 mL
  solubility in mixed citrus oil: majority of the added α-oxo-2-furanacetic acid did not dissolve
[15]; 2 days since addition
  Treated POV: 18.566 mEq/L
[15]; 4 days
  Treated POV: 17.193 mEq/L
  POV reduction: 39.8%
[15]; 44 days
  Treated POV: 1.106 mEq/L
  POV reduction: 96.2%
[15]; 2 days
  POV reduction: 26.8%

## O=C(O)CCC(=O)C(=O)O [α-ketoglutaric acid]
[16]
  reduction in the POV of the formulated perfume: complete reduction
